Drawing on the NIST ThermoML archive (doi:10.1021/je200350a), this text covers mass density and viscosity for three compounds.

For the series the following is noted: 101.33 kPa, Liquid; for viscosity: Capillary tube (Ostwald / Ubbelohde) method.

Numbers after ± are expanded uncertainties.

In general, mass density refers to the mass of a sample divided by its volume. The viscosity is the internal friction of a fluid under shear. For the compound `CC1CCCCC1` [methylcyclohexane], the mass density is reported as 770.1 ± 1.2 kg/m3 (293.15 K), 766.7 ± 1.2 kg/m3 (298.15 K), 761.8 ± 1.2 kg/m3 (303.15 K) and 757.6 ± 1.2 kg/m3 (308.15 K). In addition, the viscosity (293.15 K) stood at 0.7293 ± 0.0071 mPa·s, the viscosity (298.15 K) is recorded as 0.6827 ± 0.0067 mPa·s, the viscosity (303.15 K) amounted to 0.6385 ± 0.0063 mPa·s and the viscosity (308.15 K) is given as 0.5997 ± 0.006 mPa·s.
With `O=[N+]([O-])c1ccccc1` [nitrobenzene], the mass density is, setting by setting: (293.15 K) 1202.2 ± 1.2 kg/m3; (298.15 K) 1197.2 ± 1.2 kg/m3; (303.15 K) 1191.5 ± 1.2 kg/m3; (308.15 K) 1186.4 ± 1.2 kg/m3. In addition, the viscosity reads like this: (293.15 K) 1.983 ± 0.018 mPa·s; (298.15 K) 1.809 ± 0.016 mPa·s; (303.15 K) 1.659 ± 0.015 mPa·s; (308.15 K) 1.529 ± 0.014 mPa·s.
For `CCCCBr` [1-bromobutane], the mass density is listed as 1279.1 ± 1.5 kg/m3 (293.15 K), 1272.2 ± 1.4 kg/m3 (298.15 K), 1265.2 ± 1.4 kg/m3 (303.15 K) and 1257.2 ± 1.4 kg/m3 (308.15 K). The viscosity by setting is: (293.15 K) 0.6473 ± 0.0064 mPa·s; (298.15 K) 0.6096 ± 0.0061 mPa·s; (303.15 K) 0.5811 ± 0.0058 mPa·s; (308.15 K) 0.55 ± 0.0056 mPa·s.
